Results: patent US9982017B2, “Synthetic apelin mimetics for the treatment of heart failure” (priority 2012, dated 2018)
Where a SMILES comes first, the peptide text is derived from it. Bridges are numbered along the chain shown (N, C = ends). [ ]: non-standard residue; d: D form. The star is where a group is joined. Palmitoyl = CCCCCCCCCCCCCCCC(=O)*; pGlu = O=C1CC[C@@H](C(=O)O)N1; Lauroyl = CCCCCCCCCCCC(=O)*; d(hCys) = N[C@H](CCS)C(=O)O; Nle = CCCC[C@H](N)C(=O)O; Aib = CC(C)(N)C(=O)O

Assay: in vitro
Conditions: rat, not told, Surrogate activity-based Plasma stability t½

SMILES	half-life
CCCC[C@@H]1NC(=O)[C@@H]2CCCN2C(=O)CNC(=O)[C@H](CCCCN)NC(=O)[C@H](Cc2c[nH]cn2)NC(=O)[C@@H](NC(=O)[C@H](CC(C)C)NC(=O)[C@H](CCCNC(=N)N)NC(=O)[C@@H]2CCCN2C(=O)[C@H](CCCNC(=N)N)NC(=O)[C@@H]2CCC(=O)N2)CSSCC[C@H](C(=O)N[C@@H](Cc2ccccc2)C(=O)O)NC1=O [Example 54, pE-R-P-R-L-C-H-K-G-P-Nle-(D-hC)-F-OH] ([pGlu]RPRLCHKGP[Nle][d(hCys)]F-OH; disulfide 6-12)	> 16.7 h
CCCC[C@@H]1NC(=O)[C@@H]2CCCN2C(=O)CNC(=O)[C@H](CCCCN)NC(=O)[C@H](Cc2c[nH]cn2)NC(=O)[C@@H](NC(=O)[C@H](CC(C)C)NC(=O)[C@H](CCCNC(=N)N)NC(=O)[C@@H]2CCCN2C(=O)[C@@H](CCCNC(=N)N)NC(=O)[C@@H]2CCC(=O)N2)CSSC[C@@H](C(=O)N[C@@H](Cc2ccccc2)C(=O)O)NC1=O [Example 30, pE-r-P-R-L-C-H-K-G-P-Nle-C-F-OH] ([pGlu][dR]PRLCHKGP[Nle]CF-OH; disulfide 6-12)	> 16.7 h
CCCCCCCCCCCC(=O)NCCCC[C@H](NC(=O)[C@@H]1CSSC[C@H](NC(=O)[C@H](CC(C)C)NC(=O)[C@H](CCCNC(=N)N)NC(=O)[C@@H]2CCCN2C(=O)[C@H](CCCNC(=N)N)NC(=O)[C@@H]2CCC(=O)N2)C(=O)N[C@@H](Cc2c[nH]cn2)C(=O)N[C@@H](CCCCN)C(=O)NCC(=O)N2CCC[C@H]2C(=O)N[C@@H](CCCC)C(=O)N1)C(=O)O [Example 26, pE-R-P-R-L-C-H-K-G-P-Nle-C-K(Lauroyl)-OH] ([pGlu]RPRLCHKGP[Nle]CK(Lauroyl)-OH; disulfide 6-12)	> 16.7 h
CCCCCCCCCCCCCCCC(=O)NCCCC[C@H](NC(=O)[C@@H]1CSSC[C@H](NC(=O)[C@H](CC(C)C)NC(=O)[C@H](CCCNC(=N)N)NC(=O)[C@@H]2CCCN2C(=O)[C@H](CCCNC(=N)N)NC(=O)[C@@H]2CCC(=O)N2)C(=O)N[C@@H](Cc2c[nH]cn2)C(=O)N[C@@H](CCCCN)C(=O)NCC(=O)N2CCC[C@H]2C(=O)N[C@@H](CCCC)C(=O)N1)C(=O)O [Example 22, pE-R-P-R-L-C-H-K-G-P-Nle-C-K(Palmitoyl)-OH] ([pGlu]RPRLCHKGP[Nle]CK(Palmitoyl)-OH; disulfide 6-12)	13.3 h
CCCC[C@@H]1NC(=O)[C@@H]2CCCN2C(=O)CNC(=O)[C@H](CCCCN)NC(=O)[C@H](Cc2ccccc2)NC(=O)[C@@H](NC(=O)[C@H](CC(C)C)NC(=O)[C@H](CCCNC(=N)N)NC(=O)[C@@H]2CCCN2C(=O)[C@H](CCCNC(=N)N)NC(=O)[C@@H]2CCC(=O)N2)CCCCNC(=O)[C@H](Cc2ccccc2)NC1=O [Example 5, pE-R-P-R-L-K-F-K-G-P-Nle-F] ([pGlu]RPRLKFKGP[Nle]F; lactam 6-C)	2.1 h
CCCCCCCCCCCCCCCC(=O)NCCCC[C@@H]1NC(=O)[C@@H](NC(=O)[C@H](CC(C)C)NC(=O)[C@H](CCCNC(=N)N)NC(=O)[C@@H]2CCCN2C(=O)[C@H](CCCNC(=N)N)NC(=O)[C@@H]2CCC(=O)N2)CSSC[C@@H](C(=O)N[C@@H](Cc2ccccc2)C(=O)O)NC(=O)[C@H](CCCC)NC(=O)[C@@H]2CCCN2C(=O)CNC(=O)[C@H](CCCCN)NC1=O [Example 23, pE-R-P-R-L-C-K(Palmitoyl)-K-G-P-Nle-C-F-OH] ([pGlu]RPRLCK(Palmitoyl)KGP[Nle]CF-OH; disulfide 6-12)	> 16.7 h
CCCC[C@@H]1NC(=O)[C@@H]2CCCN2C(=O)CNC(=O)[C@H](CCCCN)NC(=O)C(C)(C)NC(=O)[C@@H](NC(=O)[C@H](CC(C)C)NC(=O)[C@H](CCCNC(=N)N)NC(=O)[C@@H]2CCCN2C(=O)[C@H](CCCNC(=N)N)NC(=O)[C@@H]2CCC(=O)N2)CSSC[C@@H](C(=O)N[C@H](Cc2ccccc2)C(=O)O)NC1=O [Example 10, pE-R-P-R-L-C-Aib-K-G-P-Nle-C-f-OH] ([pGlu]RPRLC[Aib]KGP[Nle]C[dF]-OH; disulfide 6-12)	> 16.7 h
